Source: patent US11648248B1 (King Abdulaziz University, priority 2022, dated 2023)
Values after ≈ are worked out from the molar mass of the structure shown. Like-named read-outs stand apart in the source and are kept apart here.

Legend:
Type in all cases: cell-based
[1] = test system: Cephalosporin-resistant Streptococcus pneumoniae ATCC-15916; assay: MBC by plating from MIC wells
From the text: (§1) Based upon the initial results obtained, the active compounds were further screened against additional clinical isolates of methicillin-sensitive S. aureus (MSSA), methicillin-resistant S. aureus (MRSA), vancomycin-resistant S. aureus (VRSA), Staphylococcus epidermidis, vancomycin-resistant Enterococcus faecium (VRE), vancomycin-resistant Enterococcus faecalis (VRE) and Streptococcus pneumoniae, as presented in Table 2. Additionally, we examined whether the compounds were bacteriostatic (inhibit bacteria from growing) or bactericidal (kill bacteria) by determining the minimum bactericidal concentration (MBC). The MBC was determined by plating 5 μL from each well where no growth was present (in the MIC plates) onto tryptic soya agar plates and incubating plates at 37° C. for 24 hours. The MBC was categorized as the lowest concentration that generated a 99.9% reduction in bacterial colony-forming units (Table 3).

[2] = test system: Vancomycin-resistant Enterococcus faecium ATCC-700221 (VRE ATCC-700221); assay: MBC by plating from MIC wells; conditions: read-out: MBC VRE ATCC-700221
From the text: as §1

[3] = test system: Cephalosporin-resistant Streptococcus pneumoniae ATCC-700677; assay: MIC of active MY compounds; conditions: ATCC700677, read-out: MIC S. pneumoniae ATCC 700677
From the text: as §1
(§2) The minimum inhibitory concentrations (MICs) of the tested compounds and control drugs; linezolid, vancomycin, gentamicin (antibiotics) and fluconazole and 5-fluorocytosine (5-FC) (antifungal drugs) were determined using the broth microdilution method, according to guidelines outlined by the Clinical and Laboratory Standards Institute (CLSI)^1, 2, 3 against clinically-relevant bacterial (methicillin-resistant Staphylococcus aureus (MRSA), Escherichia coli and Clostridium difficile strains) and fungal (Candida albicans) strain. S. aureus and E. coli were grown aerobically overnight on tryptone soy agar plates at 37° C. C. difficile was grown anaerobically on brain heart infusion supplemented agar at 37° C. for 48 hours. C. albicans was grown aerobically overnight on yeast peptone dextrose (YPD) agar plate at 35° C. Afterwards, a bacterial solution equivalent to 0.5 McFarland standard was prepared and diluted in cation-adjusted Mueller-Hinton broth (CAMHB) (for S. aureus and E. coli) to achieve a bacterial concentration of about 5×10^5 CFU/mL. C. difficile was diluted in brain heart infusion supplemented broth, supplemented with yeast extract, hemin and vitamin K to achieve a bacterial concentration of about 5×10^5 CFU/mL. C. albicans was diluted in Roswell Park Memorial Institute (RPMI 1640) medium with glutamine and without bicarbonate (GIBCO by Life Technologies, Green Island, N.Y., USA) which was buffered to pH 7.0 with 0.165 M of [3-(N-morpholino) propanesulfonic acid] (MOPS) (dot scientific inc., Burton, Mich., USA) to achieve a fungal concentration of about 1.5×10^3 CFU/mL. Compounds and control drugs were added in the first row of the 96-well plates and serially diluted with the corresponding media containing bacteria/fungi. Plates were then, incubated aerobically at 37° C. for 18-20 hours (for S. aureus and E. coli). C. difficile was incubated anaerobically at 37° C. for 48 hours. C. albicans was incubated aerobically at 37° C. for 24 hours.

[4] = test system: Staphylococcus epidermidis (NRS-101); assay: MIC of active MY compounds; conditions: NRS101, read-out: MIC S. epidermidis NRS 101
From the text: as §1, §2

[5] = test system: Cephalosporin-resistant Streptococcus pneumoniae ATCC-15916; assay: MIC of active MY compounds; conditions: ATCC15916, read-out: MIC S. pneumoniae ATCC-15916
From the text: as §1, §2

[6] = test system: Vancomycin-resistant Enterococcus faecium ATCC-700221 (VRE ATCC-700221); assay: MIC of active MY compounds; conditions: read-out: MIC VRE ATCC-700221
From the text: as §1, §2

[7] = test system: Vancomycin-resistant Enterococcus fecalis ATCC-51299 (VRE ATCC-51299); assay: MIC of active MY compounds; conditions: read-out: MIC VRE ATCC-51299
From the text: as §1, §2

[8] = test system: Vancomycin-resistant Staphylococcus aureus (VRSA12); assay: MIC of active MY compounds; conditions: read-out: MIC VRSA12
From the text: as §1, §2

[9] = test system: Methicillin-resistant Staphylococcus aureus (MRSA NRS-123, USA400); assay: MIC of active MY compounds; conditions: read-out: MIC MRSA NRS123 (USA400)
From the text: as §1, §2

[10] = test system: Vancomycin-resistant Staphylococcus aureus (VRSA10); assay: MIC of active MY compounds; conditions: read-out: MIC VRSA10
From the text: as §1, §2

[11] = test system: Methicillin-sensitive Staphylococcus aureus ATCC-6538 (MSSA ATCC-6538); assay: MIC of active MY compounds; conditions: read-out: MIC MSSA ATCC-6538
From the text: as §1, §2

[12] = test system: Methicillin-resistant Staphylococcus aureus (MRSA NRS-119); assay: MIC of active MY compounds; conditions: read-out: MIC MRSA NRS119
From the text: as §1, §2

[13] = test system: Methicillin-sensitive Staphylococcus aureus (MSSA NRS-107); assay: MIC of active MY compounds; conditions: read-out: MIC MSSA NRS-107
From the text: as §1, §2

[14] = test system: Listeria monocytogenes ATCC-19111; assay: MIC of active MY compounds; conditions: ATCC19111, read-out: MIC L. monocytogenes ATCC-19111
[15] = ATCC15916, 99.9% reduction in CFU, read-out: MBC S. pneumoniae ATCC-15916

Row | Structure (SMILES) | MBC [1, 15] | MBC ([2]; 99.9% reduction in CFU) | MIC [3] | MIC [4] | MIC [5] | MIC [6] | MIC [7] | MIC [8] | MIC [9] | MIC [10] | MIC [11] | MIC [12] | MIC [13] | MIC [14] | MBC ([1]; ATCC15916, read-out: MBC S. pneumoniae ATCC-15916) | MBC [2]
1 | CC(=O)NC[C@H]1CN(c2ccc(N3CCOCC3)c(F)c2)C(=O)O1 [Linezolid, reference compound] | 32 µg/mL (≈ 94.9 µM) | 16 µg/mL (≈ 47.4 µM) | 1 µg/mL | 0.5 µg/mL | 1 µg/mL | 1 µg/mL | 1 µg/mL | 1 µg/mL | 1 µg/mL | 1 µg/mL | 0.5 µg/mL | 64 µg/mL | 1 µg/mL | 0.5 µg/mL |  | 
2 | O=C(Nc1cccc(Nc2ccc(Cl)nn2)c1)Nc1ccc(Cl)c(Cl)c1 [MY14, 1-(3-((6-chloropyridazin-3-yl)amino)phenyl)-3-(3,4-dichlorophenyl)urea] | 64 µg/mL (≈ 157 µM) | > 64 µg/mL | 4 µg/mL | 8 µg/mL | 4 µg/mL | 32 µg/mL | 64 µg/mL | 4 µg/mL | 4 µg/mL | 2 µg/mL | 2 µg/mL | 4 µg/mL | 4 µg/mL | 8 µg/mL |  | 
3 | O=C(Nc1ccc(-c2ccc(=O)[nH]n2)cc1)Nc1ccc(Cl)c(Cl)c1 [MY21, 1-(3,4-dichlorophenyl)-3-(4-(6-oxo-1,6-dihydropyridazin-3-yl)phenyl)urea] | 4 µg/mL (≈ 10.7 µM) | 4 µg/mL (≈ 10.7 µM) | 2 µg/mL | 1 µg/mL | 2 µg/mL | 2 µg/mL | 4 µg/mL | 1 µg/mL | 1 µg/mL | 1 µg/mL | 1 µg/mL | 1 µg/mL | 1 µg/mL | 0.5 µg/mL |  | 
4 | O=C(Nc1ccc(Oc2ccc(=O)[nH]n2)cc1)Nc1ccc(Cl)c(Cl)c1 [MY24, 1-(3,4-dichlorophenyl)-3-(4-((6-oxo-1,6-dihydropyridazin-3-yl)oxy)phenyl)urea] | 64 µg/mL (≈ 164 µM) | 16 µg/mL (≈ 40.9 µM) | 2 µg/mL | 1 µg/mL | 2 µg/mL | 4 µg/mL | 4 µg/mL | 2 µg/mL | 1 µg/mL | 1 µg/mL | 1 µg/mL | 1 µg/mL | 1 µg/mL | 1 µg/mL |  | 
5 | O=C(Nc1ccc(Oc2ccc(=O)[nH]n2)cc1)Nc1ccc(Cl)c(C(F)(F)F)c1 [MY31, 1-(4-chloro-3-(trifluoromethyl)phenyl)-3-(4-((6-oxo-1,6-dihydropyridazin-3-yl)oxy)phenyl)urea] | 4 µg/mL (≈ 9.42 µM) | 4 µg/mL (≈ 9.42 µM) | 0.5 µg/mL | 0.5 µg/mL | 0.5 µg/mL | 1 µg/mL | 2 µg/mL | 1 µg/mL | 0.5 µg/mL | 0.5 µg/mL | 0.5 µg/mL | 0.5 µg/mL | 0.5 µg/mL | 0.5 µg/mL |  | 
6 | CNC(=O)c1cc(Oc2ccc(NC(=O)Nc3ccc(Cl)c(C(F)(F)F)c3)cc2)ccn1 [Sorafenib, reference compound] | > 64 µg/mL | > 64 µg/mL | 4 µg/mL | 8 µg/mL | 4 µg/mL | > 64 µg/mL | > 64 µg/mL | 2 µg/mL | 4 µg/mL | 4 µg/mL | 4 µg/mL | 2 µg/mL | 8 µg/mL | 4 µg/mL |  | 
7 | CN[C@H](CC(C)C)C(=O)N[C@H]1C(=O)N[C@@H](CC(N)=O)C(=O)N[C@H]2C(=O)N[C@H]3C(=O)N[C@H](C(=O)N[C@H](C(=O)O)c4cc(O)cc(O)c4-c4cc3ccc4O)[C@H](O)c3ccc(c(Cl)c3)Oc3cc2cc(c3O[C@@H]2O[C@H](CO)[C@@H](O)[C@H](O)[C@H]2O[C@H]2C[C@](C)(N)[C@H](O)[C@H](C)O2)Oc2ccc(cc2Cl)[C@H]1O [Vancomycin, reference compound] |  |  | 1 µg/mL | 2 µg/mL | 1 µg/mL | > 64 µg/mL | 32 µg/mL | 64 µg/mL | 1 µg/mL | 64 µg/mL | 1 µg/mL | 1 µg/mL | 2 µg/mL | 1 µg/mL | 1 µg/mL (≈ 0.69 µM) | > 64 µg/mL
